Usually LD50 stands for the dose expected to kill half of the subjects tested. Read a low LD50 as greater toxicity. Broadly, the IC50 is the concentration at which inhibition is half-maximal. A high value points to weaker potency in that assay.

This is an account of results in US5013757A, “Physiologically active substance Tan-931, its derivatives, their production and use” (Takeda Chemical Industries, Ltd., priority 1988, dated 1991).

Data set [1] is described as follows: Acute toxicity in mice. The conditions noted are these: mouse, in vivo, sc; subcutaneous, male mice (4 weeks old). From the text: Thus, the compounds (I-1) have a potent aromatase inhibitory activity and, therefore, they can be advantageously used for prevention and treatment of estrogen dependent diseases such as breast cancer, endometriosis, endometrium cancer, benign breast diseases, prostatomegaly and the like as well as for control of conception. Further, toxicity of the compounds (I-1) of the present invention is low.

Data set [2] concerns estrogen synthesis in rat. Briefly: In vivo inhibition of estrogen synthesis in PMSG-stimulated young female rats. Further details: species or system SD rats (female, 19 days old). The method, then:
(§1) The following Experiments specifically illustrate in vitro human placenta aromatase inhibitory activity and inhibition of estrogen synthesis in the rat by the compounds of the present invention.
In vivo inhibition of estrogen synthesis by the compound 1 (TAN-931) was studied by the following experiment.
Five young SD rats (female, 19 days old) were used per one group. The rats of test groups were administered the compound suspended in 0.2% gum arabic-physiological saline solution subcutaneously at the doses of 25, 50 and 100 mg/kg for 4 days at 24-hour intervals. The rats of control groups (Control 1 and 2) were administered 0.2 ml of 0.2% gum arabic-physiological saline solution. After administration of the compound on the third day after initiation of the test, a single dose of 10 U/rat (s.c.) of pregnant mare's serum gonadotropin (PMSG) was administered to the rats of test groups and Control 2. […] After centrifugation, the plasma was obtained and the plasma estradiol-17 β level was determined by radio immunoassay. Further, the uterus and ovarium were removed from the rat, freed from connective tissue and the like and weighed, respectively. As the control compound for estimation of the pharmacological activity, 4-hydroxyandrostenedione (4-OHA) was used.

Data set [3] addresses T1, human placenta aromatase (Homo sapiens, UniProt P11511).
T1 construct: The resulting pellet was used as a microsome fraction; from tissue; host or cells: human placenta, microsome fraction (148,000×g pellet)
T1 sequence (P11511 1-503): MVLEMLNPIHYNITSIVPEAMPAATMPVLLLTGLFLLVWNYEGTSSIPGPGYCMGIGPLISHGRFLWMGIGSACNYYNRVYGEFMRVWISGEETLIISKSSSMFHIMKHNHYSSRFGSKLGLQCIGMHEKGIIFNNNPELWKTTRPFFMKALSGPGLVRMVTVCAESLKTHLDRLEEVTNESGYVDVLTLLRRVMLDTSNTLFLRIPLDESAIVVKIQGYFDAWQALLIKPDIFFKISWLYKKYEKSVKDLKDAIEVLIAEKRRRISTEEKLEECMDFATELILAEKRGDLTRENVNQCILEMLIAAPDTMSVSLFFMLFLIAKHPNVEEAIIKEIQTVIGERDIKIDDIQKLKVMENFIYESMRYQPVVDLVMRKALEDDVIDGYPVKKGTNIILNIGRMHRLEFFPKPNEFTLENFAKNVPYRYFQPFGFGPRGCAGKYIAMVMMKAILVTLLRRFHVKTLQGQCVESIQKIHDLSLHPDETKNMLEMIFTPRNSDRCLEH
Kind of data set: In vitro human placenta microsome aromatase inhibitory activity. The conditions noted are these: androstenedione 4 μM, 37° C., 1 hour. It is filed as biochemical.
Description: as §1
Preparation of human placenta microsome
The method of F. A. Thompson et al. [J. Biol. Chem., 249, 5364 (1974)] was partly modified. Namely, the placenta was washed with 0.15 M KCl which was previously cooled to remove the attached membrane and large blood vessels and then sufficiently and finely cut with scissors. To the finely cut tissue was added 2 ml of cold 0.02 M phosphate buffer containing 0.25M sucrose (pH 7.4) per 1 g of the tissue and the mixture was homogenized with Polytron homogenizer (30 second×3, in ice). Then, the mixture was centrifuged at 800×g for 10 minutes and the supernatant was centrifuged at 20,000×g for 30 minutes and further at 148,000×g for 45 minutes. The resulting pellet was used as a microsome fraction. The microsome obtained was suspended in 1 ml of the above phosphate buffer per 10 g of the placenta and stored at -80° C. Upon use, it was diluted 5 to 6 times.
Determination of aromatase activity and inhibitory activity
The method of F. A. Thompson et al. [see above] was partly modified as follows.
A reaction mixture (225 μl ) containing 4-androstene-3,17-dione (4 μM ), 1,2 [^3 H]-androstenedione (140,000 dpm), NADPH (550 μM ) and the above microsome (20 μl ) and a solution containing an inhibitor or not (5 μl ) was incubated at 37° C. for 1 hour. According to this determination, [^3 H]-H2 O was formed by aromatization of androstenedione. Then, the reaction mixture was extracted with chloroform (0.5 ml) to separate layers and the aqueous layer obtained was treated with 5% activated carbon (0.25 ml) to remove the free steroid. After high-speed centrifugation, to the supernatant (0.2 ml) was added scintillator (3 ml) and radioactivity was determined with a liquid scintillation counter. By comparing the result obtained by addition of an inhibitor with that of a control sample wherein the reaction was carried out without addition of any inhibitor, an inhibitory rate (%) was calculated. The effectiveness was expressed by the concentration which was required for inhibiting 50% of the enzyme activity at the substrate (androstenedione) concentration of 4 μM

A short description of data set [4]: Solubility of TAN-931. The class given is physicochemical.
Data set [5] has as its system various enzymes which pertain to biosynthesis of steroid hormones. The conditions noted are these: background statement; cited from earlier work.
Where [6] appears, read: 25 mg/kg/day s.c., 4 days, PMSG.
Where [7] appears, read: 50 mg/kg/day s.c., 4 days, PMSG.
Setting [8] is: 100 mg/kg/day s.c., 4 days, PMSG.

`O=Cc1cc(C(=O)O)cc(O)c1C(=O)c1c(O)cccc1O` [Compound 1] had an LD50 in data set [1] of at least 800 mg/kg. Besides, the figures for the “Plasma estradiol 17-B level” value in data set [2] (setting [6]), in data set [2] (setting [7]) and in data set [2] (setting [8]) were 312.8 ± 192.4 pg/mL, 80.8 ± 64.2 pg/mL and 50.2 ± 23.5 pg/mL, respectively. For the same molecule, the results for the “Tissue weight Ovarium” value in data set [2] (setting [6]), in data set [2] (setting [7]) and in data set [2] (setting [8]) were 24.2 ± 6.2 mg, 16.4 ± 6.4 mg and 14.5 ± 1.5 mg, respectively. The results for the “Tissue weight Uterus” value in data set [2] (setting [6]), in data set [2] (setting [7]) and in data set [2] (setting [8]) were 108.4 ± 15.6 mg, 89.4 ± 30.8 mg and 66.3 ± 38.0 mg, respectively. Also, in data set [2] (result in words), the “blood estrogen level raised by stimulation due to PMSG administration” value is reported as “significantly lowered”. For the same molecule, it took 17.2 µM to reach half-maximal inhibition in data set [3] (IC50). The Solubility entry is on record as “Slightly soluble” in data set [4] (chloroform, diethyl ether); “Soluble” in data set [4] (dimethylsulfoxide (DMSO), methanol, ethanol, acetone); “Insoluble” in data set [4] (water, n-hexane).
Take `COC(=O)c1cc(O)c(C(=O)c2c(O)cccc2O)c(C=O)c1` [Compound 2]: half-maximal inhibition in data set [3] (IC50) was put at 22.1 µM.
`COCOC(=O)c1cc(O)c(C(=O)c2c(O)cccc2O)c(C=O)c1` [Compound 3]: it took 12.4 µM to reach half-maximal inhibition in data set [3] (IC50).
`C[C@]12CCC(=O)C(O)=C1CC[C@@H]1[C@@H]2CC[C@]2(C)C(=O)CC[C@@H]12` [Compound 4-OHA, 4-hydroxyandrostenedione, reference compound]: in data set [2] (setting [8]), the “Plasma estradiol 17-B level” value is 149.6 ± 76.7 pg/mL, the “Tissue weight Ovarium” value was determined as 28.4 ± 7.9 mg, the “Tissue weight Uterus” value is on record as 85.9 ± 13.0 mg and the Weight gain stood at 22.2 ± 1.5 g.
Take `O=Cc1cc(C(=O)OCc2ccccc2)cc(O)c1C(=O)c1c(O)cccc1O` [Compound 4]: the half-inhibitory concentration (IC50) in data set [3] was 206 µM.
In the case of `CCCCCCOC(=O)c1cc(O)c(C(=O)c2c(O)cccc2O)c(C=O)c1` [Compound 5], the IC50 in data set [3] was 32.3 µM.
Molecule `CNC(=O)c1cc(O)c(C(=O)c2c(O)cccc2O)c(C=O)c1` [Compound 6] gave an IC50 in data set [3] of 21.3 µM.
Same read-out and setting: to `CN(C)C(=O)c1cc(O)c(C(=O)c2c(O)cccc2O)c(C=O)c1` [Compound 7] belongs 14.6 µM.
Consider `CCCCCCNC(=O)c1cc(O)c(C(=O)c2c(O)cccc2O)c(C=O)c1` [Compound 8], for which the IC50 in data set [3] was 17.6 µM.
For `C=CCNC(=O)c1cc(O)c(C(=O)c2c(O)cccc2O)c(C=O)c1` [Compound 9], the IC50 in data set [3] is 15.2 µM.
As for `CC(C)NC(=O)c1cc(O)c(C(=O)c2c(O)cccc2O)c(C=O)c1` [Compound 10], the IC50 in data set [3] is 25.6 µM.
Consider `O=Cc1cc(C(=O)N2CCOCC2)cc(O)c1C(=O)c1c(O)cccc1O` [Compound 11], for which, in data set [3], the IC50 is 16.4 µM.
The same measure, in the same setting: to `O=Cc1cc(C(=O)N2CCCC2)cc(O)c1C(=O)c1c(O)cccc1O` [Compound 12] belongs 23.4 µM.
Same read-out and setting: under `Cc1ccc(NC(=O)c2cc(O)c(C(=O)c3c(O)cccc3O)c(C=O)c2)cc1` [Compound 13] stands 16.1 µM; under `CN(C)CCNC(=O)c1cc(O)c(C(=O)c2c(O)cccc2O)c(C=O)c1` [Compound 14], 16.9 µM.
Molecule `COc1cc(C(=O)O)cc(C=O)c1C(=O)c1c(O)cccc1O` [Compound 15] showed an IC50 in data set [3] of 24 µM.
On the same count and under the same terms, under `COc1cccc(O)c1C(=O)c1c(O)cc(C(=O)O)cc1C=O` [Compound 16] stands 135 µM; under `COc1cccc(O)c1C(=O)c1c(C=O)cc(C(=O)O)cc1OC` [Compound 17], 96.6 µM.
Consider `COc1cc(C(=O)N(C)C)cc(C=O)c1C(=O)c1c(O)cccc1O` [Compound 19], for which, in data set [3], the IC50 was 18.3 µM.
With `O=Cc1cc(C(=O)O)cc(O)c1C(=O)c1c(O)ccc(Cl)c1O` [Compound 27], in data set [3], the IC50 was 14.3 µM.
For the molecule `CCC1(c2ccc(N)cc2)CCC(=O)NC1=O` (centres unmarked) [aminoglutethimide], the “inhibition of enzymes of steroid hormone biosynthesis” value in data set [5] was “inhibits various enzymes”.
